Data taken from BindingDB's records for doi:10.1021/cb900083m (Genentech, 2009).

Key:
[1] = biological target: T1, Baculoviral IAP repeat-containing protein 2 [269-336] (Homo sapiens, UniProt Q13490); test: Fluorescence Polarization Affinity Measurements; details: pH 7.2; 22 °C
T1 construct: 269-336
Description: (§1) Samples for fluorescence polarization affinity measurements were prepared by addition of serial dilutions of […] to each well containing antagonist and polarization probe in the buffer. Samples were read after 30-min incubation. Fluorescence polarization values were plotted as a function of the antagonist concentration, and the IC50 values were obtained by fitting the data to a four-parameter equation using KaleidaGraph software. Ki values for the antagonists were determined from the IC50 values.

[2] = biological target: T2, Baculoviral IAP repeat-containing protein 3 [255-322] (Homo sapiens, UniProt Q13489); test: Fluorescence Polarization Affinity Measurements; details: pH 7.2; 22 °C
T2 construct: 255-322
Description: as §1

[3] = Samples for fluorescence polarization affinity measurements were prepared by addition of serial dilutions of […] to each well containing antagonist and polarization probe in the buffer. Samples were read after 30-min incubation. Fluorescence polarization values were plotted as a function of the antagonist concentra; details: pH 7.2

T1 sequence (Q13490 269-336): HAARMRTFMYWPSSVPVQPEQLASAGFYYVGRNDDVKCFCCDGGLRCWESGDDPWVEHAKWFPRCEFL
T2 sequence (Q13489 255-322): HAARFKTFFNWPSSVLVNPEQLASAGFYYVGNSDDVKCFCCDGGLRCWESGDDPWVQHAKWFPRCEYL

Row | Compound | Ki [1] | Ki [2] | Ki [3]
1 | CN[C@H](C)C(=O)N[C@@H](C(=O)N1CCC[C@@H]1c1nc2c(-c3ccccc3Cl)nccc2s1)C1CCOCC1 [ent-PS-1] | > 34000 nM | > 34000 nM | > 34000 nM
2 | CN[C@@H](C)C(=O)N[C@H](C(=O)N1CC[C@H](C)[C@H]1C(=O)Nc1cc(C)nn1-c1ccccc1)C1CCCCC1 [CS-1] | 10 nM | 52 nM | 2400 nM
3 | CN[C@@H](C)C(=O)N[C@H](C(=O)N1CCC[C@H]1C(=O)Nc1ccccc1-c1ncccn1)C1CCCCC1 [CS-2] | 37 nM | 114 nM | 5050 nM
4 | CN[C@@H](C)C(=O)N[C@H](C(=O)N1CCC[C@H]1c1nc2c(-c3ccccc3Cl)nccc2s1)C1CCOCC1 [PS-1] | 36 nM | 96 nM | 33 nM
